Measurements published in patent publication EP3698776A1, “TAMPER-RESISTANT DOSAGE FORM WITH IMMEDIATE RELEASE AND RESISTANCE AGAINST SOLVENT EXTRACTION” (Grünenthal GmbH, priority 2019, dated 2020).

Columns and labels:
[1] = tested on: non-dependent recreational opioid users; assay: Human abuse liability study, intranasal: pharmacodynamics (VAS Drug Liking, pupillometry); format: in vivo; conditions: 30 mg oxycodone HCl, Completer Set
Experimental: The formulation according to Inventive Example 1 was tested in a human abuse liability study and compared to a commercial product and to placebo (placebo API and placebo TRF formulation).
(§1) A single-site, randomized, double-blind, double-dummy, active-comparator, placebo-controlled, 3-way crossover trial in adult non-dependent recreational opioid users was conducted to compare the intranasal abuse potential of the tablet formulation according to Inventive Example 1 and standard formulations of oxycodone.
(§2) The primary objective of the study was to compare the intranasal abuse potential of a manipulated formulation according to Inventive Example 1 and oxycodone active pharmaceutical ingredient (API) powder (representing manipulated oxycodone IR standard formulation). Primary measure: Peak effect (Emax) for Drug Liking "at this moment" on visual analog scale (VAS). The secondary objectives were to compare the pharmacokinetics (PK), further pharmacodynamic (PD) parameters, and assess safety and tolerability.
The trial design is illustrated in Figure 3 (Single-site, randomized, double-blind, double-dummy, active-comparator, placebo-controlled, 3-way crossover trial in male and female non-dependent recreational opioid users with recent intranasal use experience).
Subjects received single treatments of Test, Comparator, and Placebo in a randomized, double-blind, double-dummy, 3-way crossover. […]

[2] = Human abuse liability study, intranasal: pharmacokinetics; format: in vivo; conditions: inhaled or intranasal, intranasal (insufflated), plasma, PK Set, read-out: median tmax
Experimental: as §1, §2
Subjects received single treatments of Test, Comparator, and Placebo in a randomized, double-blind, double-dummy, 3-way crossover. Each single treatment consisted of two investigational medicinal products (IMPs), to be insufflated (snorted) in quick succession in fixed sequence:
Pharmacokinetics results are presented in Figure 7 relative to the insufflated amount of oxycodone, mean dose-normalized plasma-concentration-time profiles of Oxycodone - PK Set: […]

COc1ccc2c3c1O[C@H]1C(=O)CC[C@@]4(O)[C@@H](C2)N(C)CC[C@]314.Cl [Comparator (C), oxycodone HCl]
Peak effect (Emax) of Drug Liking "at this moment", Least Square Mean [1]: 75.0 | Tmax [2]: 1.75 h
